# From patent publication US11945806B2, “Stabilization of amyloidogenic immunoglobulin light chains” (The Scripps Research Institute, priority 2019, dated 2024)
# Columns and labels:
# [1] = test system: κ1-33 LCs (AL12-FL, κ I O18/O8-FL); assay: Fluorogenic coumarin titration, κ1-33 LCs; type: binding, human; settings: 1 at 1 μM
# Description: (§1) Fluorogenic coumarin titration. LCs were concentrated to 200 μM in centrifugal concentrators with a 10 kDa membrane, unless the available material was limiting. […] Fluorescence of 1 was measured on a Gemini plate reader (Molecular Devices) using an excitation wavelength of 373 nm and emission wavelength of 445 nm. Data were normalized platewise to the plateau fluorescence value for WIL-FL to calculate the fraction of 1 bound.
# Of the two classes of human LCs, λ and κ, λ LCs are more commonly observed in AL, but a fraction of patients secrete κ1-33 LCs (12, 33). […] Recombinant expression of these κ1-33 LCs using a similar protocol to that used for λ6-57 LCs yielded both monomeric and dimeric LCs, as shown by SV-AUC (SI Appendix FIG. S7). […] Binding of an excess of κ1-33 LCs (20 μM) to 1 (1 μM) afforded FL LC•1 fluorescence (FIG. 2f, inset).
# JTO-V = JTO-V (Homo sapiens, UniProt P01721); assay: NMR ZZ-exchange experiment; type: binding; settings: JTO-V2•1 complex
# Description: Chemical exchange saturation transfer (CEST) experiments were acquired on WIL-V samples at 0.4 mM in the presence of 0.2 or 0.3 mM 1 using a multi-site excitation scheme (16). […] Further details of the analysis of these experiments are given in the Supplemental NMR Analysis described below.
# WIL-FL C214S = assay: Aggregation measured by SEC (disappearance of soluble dimeric LC); type: biochemical, human; settings: 1 at 200 μM, LC 10 μM, pH 5, 37° C.; 0.066 hr^−1 in the absence of 1
# Description: Aggregation. WIL C214S was dialyzed into ddH2O and filtered. Each 1 ml reaction contained 10 μM LC, ddH2O, 1% DMSO or 200 μM 1 in 1% DMSO, 150 mM NaCl, and ABC buffer (20 mM sodium acetate, 20 mM boric acid, 20 mM sodium citrate, pH 5 with HCl). Components are listed in the order they were added.
# For analysis by SEC, reactions were set up in 2 ml tubes (Axygen #SCT-200-B-S) equipped with 4 mm stir bars. For each experiment, four reactions (two replicates each of vehicle and 1) were placed in a microfuge tube rack on top of the center of a stir plate. Reactions were stirred at approximately 2,000 rpm at 37° C., and 60 μl aliquots were removed at the indicated timepoints. Aliquots were centrifuged at 16,000 g at 4° C. for 5 min. 10 μl of the supernatant was injected into a Waters Acquity H-Class Bio-UPLC (ultra performance liquid chromatography) instrument equipped with a BEH200 SEC column (Waters, Milford, MA) equilibrated with PBS with 1 mM EDTA. At the end of an experiment, stir bars were washed for at least 3 h with 1 M NaOH, followed by at least 3 h with 6 M GuHCl at room temperature to remove residual aggregates.
# Thus, we also quantified aggregation by measuring the rate of disappearance of soluble dimeric LC using size exclusion chromatography (SEC) (4). […]
# WIL-V = WIL-V (Homo sapiens, UniProt P01721); assay: Sedimentation velocity analytical ultracentrifugation (SV-AUC); settings: LC 20 μM, 1 at 100 μM
# Description: Analytical Ultracentrifugation (AUC). […] Sedimentation was measured by absorbance at 280 nm. Data were processed using SedFit (6).
# [2] = test system: isolated V-domains from WIL, ALMC2 and 6aJL2; assay: Fluorogenic coumarin titration, isolated V-domains; type: binding, human; settings: 1 at 1 μM
# Description: as §1
# (§2) A successful kinetic stabilizer should, but is not required to, bind to and stabilize patient LCs with a vast range of sequences (30, 31). To ask whether 1 can stabilize other FL LC sequences, we measured binding of 1 to three more recombinant λ6-57 FL LC disulfide-linked dimers: JTO-FL; ALMC2-FL, an AL-associated LC sequence derived from the ALMC2 cell line (32); and the germline sequence 6aJL2-FL.
# LCs with C214S mutation = assay: Fluorogenic coumarin titration, C214S LCs; type: binding, human; settings: 1 at 1 μM
# Description: as §1, §2
compound,measurement,setting,value
"CCN(CC)c1ccc2c(C)cc(=O)oc2c1 [Compound 1, 7-diethylamino-4-methylcoumarin]",binding of 1,[1],weaker than binding to λ6-57 LCs
same,off-rate,JTO-V,57 ± 2 s⁻¹
same,kagg,WIL-FL C214S,0.011 h⁻¹
same,size distribution (SV-AUC),WIL-V,increase
same,affinity for 1,[2],reduced affinity
same,affinity of LCs for 1,LCs with C214S mutation,reduces the affinity
